Laboratory results taken from US12577267B2, “Pyrimidine compounds for use as MAP4K1 inhibitors” (GLENMARK SPECIALITY S.A., priority 2021, dated 2026).
Structures can show the parent of a compound that is named as a salt. Where two headings read alike, the source gives them in different places.

Molecular target: MAP4K-1 enzyme (Homo sapiens, UniProt Q92918)
Test: FRET one step binding assay (tracer displacement)
Conditions: for inhibition at 1 µM / % Inhibition at 1 μM: 1 μM compound; for inhibition at 10 µM / % Inhibition at 10 μM: 10 μM compound
Method: This is a one step binding assay based on the binding and displacement of the labeled tracer, where compound addition is followed by addition of the anti-GST tagged europium (Eu) as the donor and Alexa Fluor-labeled tracer as the acceptor.
Test compounds were dissolved in dimethylsulfoxide (DMSO) to prepare 10.0 mM stock solutions and diluted to the desired concentration. The final concentration of DMSO in the reaction was 3% (v/v). The assay mixture was prepared by mixing 2 nM of the Eu-Anti-GST Antibody and 5 nM MAP4K-1 enzyme in the Kinase buffer containing 50 mM HEPES (pH 7.5), 10 mM MgCl2, 1 mM EGTA, 0.01% Brij-35 with or without the desired concentration of the compound. The reaction was incubated on ice for 15 min. […] After shaking for 5 min the reaction was further incubated for 1 hour at room temperature and this was kept at 4° C. and read on ARTEMIS reader as per the kit instructions (Thermo). […] The activity was calculated as percent of control reaction. IC50 values were calculated from dose response curve by nonlinear regression analysis using GraphPad Prism software.

Chain of MAP4K-1 enzyme (Q92918 whole entry): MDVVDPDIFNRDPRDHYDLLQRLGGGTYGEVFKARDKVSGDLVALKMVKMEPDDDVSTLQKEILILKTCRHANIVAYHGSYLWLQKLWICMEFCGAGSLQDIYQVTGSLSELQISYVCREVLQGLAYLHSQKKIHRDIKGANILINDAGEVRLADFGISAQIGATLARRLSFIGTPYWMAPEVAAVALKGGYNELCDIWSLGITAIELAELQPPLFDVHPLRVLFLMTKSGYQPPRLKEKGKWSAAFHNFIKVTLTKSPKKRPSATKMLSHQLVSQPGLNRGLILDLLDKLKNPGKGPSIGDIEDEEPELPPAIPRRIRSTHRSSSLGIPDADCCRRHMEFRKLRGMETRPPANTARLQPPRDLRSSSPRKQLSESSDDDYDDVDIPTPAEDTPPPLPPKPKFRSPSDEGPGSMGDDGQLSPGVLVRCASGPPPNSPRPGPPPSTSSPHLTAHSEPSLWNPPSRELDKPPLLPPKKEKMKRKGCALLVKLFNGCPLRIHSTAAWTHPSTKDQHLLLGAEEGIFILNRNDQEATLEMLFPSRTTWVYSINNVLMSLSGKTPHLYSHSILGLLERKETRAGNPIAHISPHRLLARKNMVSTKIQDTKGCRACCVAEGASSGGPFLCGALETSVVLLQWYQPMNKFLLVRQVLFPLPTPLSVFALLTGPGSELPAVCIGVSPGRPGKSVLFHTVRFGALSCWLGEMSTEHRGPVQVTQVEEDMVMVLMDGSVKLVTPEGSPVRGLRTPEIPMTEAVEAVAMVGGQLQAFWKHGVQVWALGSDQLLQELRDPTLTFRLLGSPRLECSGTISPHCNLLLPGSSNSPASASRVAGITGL

Row | SMILES | inhibition at 1 µM [%] | inhibition at 10 µM [%] | IC50 (read-out: IC50) [nM] | IC50 (IC50 (nM)) [nM] | also measured
1 | COc1cc2c(cc1Nc1ncc(Cl)c(Nc3ccc(O)cc3P(C)(C)=O)n1)CN(C)CC2 [Example 1, (2-((5-Chloro-2-((6-methoxy-2-methyl-1,2,3,4-tetrahydroisoquinolin-7-yl)amino)pyrimidin-4-yl)amino)-5-hydroxyphenyl)dimethylphosphineoxide dihydrochloride] | 87.2 | 86.5 | < 50 | – | –
2 | COc1cc2c(cc1Nc1ncc(Cl)c(Oc3ccc(OS(=O)(=O)F)cc3P(C)(C)=O)n1)CN(C)CC2 [Example 60, 4-((5-Chloro-2-((6-methoxy-2-methyl-1,2,3,4-tetrahydroisoquinolin-7-yl)amino)pyrimidin-4-yl)oxy)-3-(dimethylphosphoryl)phenylsulfofluoridate dihydrochloride] | 70.5 | 83.4 | – | 100 to 500 | –
3 | COc1cc2c(cc1Nc1ncc(Cl)c(Nc3ccc(N(C)S(=O)(=O)F)cc3P(C)(C)=O)n1)CN(C)CC2 [Example 43, 4-((5-Chloro-2-((6-methoxy-2-methyl-1,2,3,4-tetrahydroisoquinolin-7-yl)amino)pyrimidin-4-yl)amino)-3-(dimethylphosphoryl)phenyl)(methyl)sulfamoylfluoride dihydrochloride] | 80 | 80.5 | – | < 50 | –
4 | COc1cc2c(cc1Nc1ncc(Cl)c(Nc3ncc(OS(=O)(=O)F)cc3P(C)(C)=O)n1)C(C)N(C)CC2 (single isomer, unassigned; isomer 1) [Example 23, 6-((5-Chloro-2-((6-methoxy-1,2-dimethyl-1,2,3,4-tetrahydroisoquinolin-7-yl)amino)pyrimidin-4-yl)amino)-5-(dimethylphosphory)pyridin-3-yl sulfofluoridate dihyrochloride (Isomer 1)] | 86.1 | 89.6 | – | 50 to 100 | –
5 | COc1cc2c(cc1Nc1ncc(Cl)c(Nc3ccc(NC(=O)CCl)cc3P(C)(C)=O)n1)CN(C)CC2 [Example 56, 2-Chloro-N-(4-((5-chloro-2-((6-methoxy-2-methyl-1,2,3,4-tetrahydroisoquinolin-7-yl)amino)pyrimidin-4-yl)amino)-3-(dimethylphosphoryl)phenyl)acetamide hydrochloride] | 88.7 | 88.2 | < 50 | – | –
6 | COc1cc2c(cc1Nc1ncc(Cl)c(Nc3ccc(OS(=O)(=O)F)cc3P(C)(C)=O)n1)CN(C)C(C)C2 (single isomer, unassigned; isomer 1) [Example 33, 4-((5-Chloro-2-((6-methoxy-2,3-dimethyl-1,2,3,4-tetrahydroisoquinolin-7-yl)amino)pyrimidin-4-yl)amino)-3-(dimethylphosphoryl)phenyl sulfofluoridate dihydrochloride (Isomer 1)] | 92.8 | 87.8 | – | < 50 | –
7 | Cl.Cl.[2H]C([2H])([2H])Oc1cc2c(cc1Nc1ncc(Cl)c(Nc3ccc(OS(=O)(=O)F)cc3P(C)(C)=O)n1)CN(C)CC2 [Example 5, 4-((5-Chloro-2-((6-(methoxy-d3)-2-methyl-1,2,3,4-tetrahydroisoquinolin-7-yl)amino)pyrimidin-4-yl)amino)-3-(dimethylphosphoryl)phenyl sulfurofluoridate dihydrochloride] | 78.1 | 82.5 | – | < 50 | –
8 | COc1cc2c(cc1Nc1ncc(Cl)c(Nc3ccc(OS(=O)(=O)F)cc3P(C)(C)=O)n1)COCC2 [Example 28, 4-((5-Chloro-2-((6-methoxyisochroman-7-yl)amino)pyrimidin-4-yl)amino)-3-(dimethylphosphoryl)phenyl sulfofluoridate hydrochloride] | 69.7 | 75.9 | – | < 50 | –
9 | COc1cc2c(cc1Nc1ncc(Cl)c(Nc3cnc(OS(=O)(=O)F)cc3P(C)(C)=O)n1)CN(C)CC2 [Example 37, 5-((5-Chloro-2-((6-methoxy-2-methyl-1,2,3,4-tetrahydroisoquinolin-7-yl)amino)pyrimidin-4-yl)amino)-4-(dimethylphosphoryl)pyridin-2-ylsulfofluoridate] | – | – | < 50 | – | % Inhibition at 1 μM: 84.45%; % Inhibition at 10 μM: 84.73%
10 | [2H]C([2H])([2H])Oc1cc2c(cc1Nc1ncc(Cl)c(Nc3ccc(OS(=O)(=O)F)cc3P(C)(C)=O)n1)CN(C([2H])([2H])[2H])CC2 [Example 6, 4-((5-Chloro-2-((6-methoxy-d3)-2-(methyl-d3)-1,2,3,4-tetrahydroisoquinolin-7-yl)amino)pyrimidin-4-yl)amino)-3-(dimethylphosphoryl)phenyl sulfurofluoridate dihydrochloride] | 80 | 82 | – | < 50 | –
11 | COc1cc2c(cc1Nc1ncc(Cl)c(Nc3ccc(O[C@@H]4CCOC4)cc3P(C)(C)=O)n1)CN(C)CC2 [Example 49, (R)-(2-((5-Chloro-2-((6-methoxy-2-methyl-1,2,3,4-tetrahydroisoquinolin-7-yl)amino)pyrimidin-4-yl)amino)-5-((tetrahydrofuran-3-yl)oxy)phenyl)dimethyl phosphine oxide] | 94.3 | 91.7 | < 50 | – | –
12 | CP(C)(=O)c1cc(OS(=O)(=O)F)ccc1Nc1nc(Nc2cc3n(n2)CCNC3)ncc1Cl [Example 42, 4-((5-Chloro-2-((4,5,6,7-tetrahydropyrazolo[1,5-a]pyrazin-2-yl)amino)pyrimidin-4-yl)amino)-3-(dimethylphosphoryl)phenyl sulfofluoridate dihydrochloride] | 84 | 83 | – | < 50 | –
13 | COc1cc2c(cc1Nc1ncc(Cl)c(Nc3ncc(OS(=O)(=O)F)cc3P(C)(C)=O)n1)C(C)N(C)CC2 (single isomer, unassigned; isomer 2) [Example 24, 6-((5-Chloro-2-((6-methoxy-1,2-dimethyl-1,2,3,4-tetrahydroisoquinolin-7-yl)amino)pyrimidin-4-yl)amino)-5-(dimethylphosphoryl)pyridin-3-yl sulfofluoridate dihydrochloride (Isomer 2)] | – | – | – | < 50 | % Inhibition at 1 μM (1 µM): 86.68%; % Inhibition at 10 μM (10 µM): 85.52%
14 | CN1CCc2cc(O)c(Nc3ncc(Cl)c(Nc4ccc(OS(=O)(=O)F)cc4P(C)(C)=O)n3)cc2C1 [Example 61, 4-((5-Chloro-2-((6-hydroxy-2-methyl-1,2,3,4-tetrahydroisoquinolin-7-yl)amino)pyrimidin-4-yl)amino)-3-(dimethylphosphoryl)phenylsulfofluoridate dihydrochloride] | 89.6 | 89.7 | – | < 50 | –
15 | COc1cc2c(cc1Nc1ncc(Cl)c(Nc3ccc(OC4COC4)cc3P(C)(C)=O)n1)CN(C)CC2 [Example 51, (2-((5-Chloro-2-((6-methoxy-2-methyl-1,2,3,4-tetrahydroisoquinolin-7-yl)amino)pyrimidin-4-yl)amino)-5-(oxetan-3-yloxy)phenyl)dimethyl phosphine oxide] | 93.1 | 94.3 | < 50 | – | –
16 | CN1CCc2cc(F)c(Nc3ncc(Cl)c(Nc4ccc(OS(=O)(=O)F)cc4P(C)(C)=O)n3)cc2C1 [Example 26, 4-((5-Chloro-2-((6-fluoro-2-methyl-1,2,3,4-tetrahydroisoquinolin-7-yl)amino)pyrimidin-4-yl)amino)-3-(dimethylphosphoryl)phenyl sulfofluoridate dihydrochloride] | 75.8 | 76.5 | – | < 50 | –
17 | COc1cc2c(cc1Nc1ncc(Cl)c(Nc3ccc(OS(=O)(=O)F)cc3P(C)(C)=O)n1)CN(CC(F)F)CC2 [Example 8, 4-((5-Chloro-2-((2-(2,2-difluoroethyl)-6-methoxy-1,2,3,4-tetrahydroisoquinolin-7-yl)amino)pyrimidin-4-yl)amino)-3-(dimethylphosphoryl)phenyl sulfurofluoridate dihydrochloride] | 63.7 | 80 | – | < 50 | –
18 | COc1cc2c(cc1Nc1ncc(Cl)c(Nc3ccc(OC(F)(F)F)cc3P(C)(C)=O)n1)CN(C)CC2 [Example 47] | 91.4 | 88 | < 50 | – | –
19 | COc1cc2c(cc1Nc1ncc(Cl)c(Nc3cc(OS(=O)(=O)F)ccc3P(C)(C)=O)n1)CN(C)C(C)C2 (single isomer, unassigned; isomer 2) [Example 36, 3-((5-Chloro-2-((6-methoxy-2,3-dimethyl-1,2,3,4-tetrahydroisoquinolin-7-yl)amino)pyrimidin-4-yl)amino)-4-(dimethylphosphoryl)phenyl sulfofluoridate dihydrochloride (Isomer 2)] | – | – | – | – | IC50: < 50 nM; % Inhibition at 1 μM (1 µM): 85.29%; % Inhibition at 10 μM (10 µM): 83.76%
20 | COc1cc2c(cc1Nc1ncc(Cl)c(Nc3ccc(OS(=O)(=O)F)nc3P(C)(C)=O)n1)CN(C)CC2 [Example 21, 5-((5-Chloro-2-((6-methoxy-2-methyl-1,2,3,4-tetrahydroisoquinolin-7-yl)amino)pyrimidin-4-yl)amino)-6-(dimethylphosphoryl)pyridin-2-yl sulfofluoridate dihydrochloride] | 79.2 | 81.6 | – | < 50 | –
